According to PubChem BioAssay (NCI):
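Briefly, cells in 96-well plates were exposed to five compound concentrations for 48 h, and endpoints were estimated by linear interpolation. GI50: concentration for 50% inhibition of growth. TGI marks complete inhibition of growth.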

What was measured:
Assay in all cases: inhibition of tumour cell growth, NCI panel, 48 h
SN12C renal = tested on: SN12C renal
M14 melanoma = tested on: M14 melanoma
NCI/ADR-RES ovarian = tested on: NCI/ADR-RES ovarian
CCRF-CEM leukemia = tested on: CCRF-CEM leukemia
SK-OV-3 ovarian = tested on: SK-OV-3 ovarian
IGROV1 ovarian = tested on: IGROV1 ovarian
NCI-H23 lung = tested on: NCI-H23 lung
UACC-62 melanoma = tested on: UACC-62 melanoma
OVCAR-5 ovarian = tested on: OVCAR-5 ovarian
KM12 colon = tested on: KM12 colon
NCI-H226 lung = tested on: NCI-H226 lung
HCT-15 colon = tested on: HCT-15 colon
MDA-MB-435 = tested on: MDA-MB-435
TK-10 renal = tested on: TK-10 renal
SK-MEL-28 melanoma = tested on: SK-MEL-28 melanoma
DU-145 prostate = tested on: DU-145 prostate
RPMI-8226 leukemia = tested on: RPMI-8226 leukemia
CAKI-1 renal = tested on: CAKI-1 renal
OVCAR-8 ovarian = tested on: OVCAR-8 ovarian
HOP-62 NSCLC = tested on: HOP-62 NSCLC
COLO 205 colon = tested on: COLO 205 colon
SF-295 CNS = tested on: SF-295 CNS
SNB-75 CNS = tested on: SNB-75 CNS
SR leukemia = tested on: SR leukemia
HCT-116 colon = tested on: HCT-116 colon
SF-268 CNS = tested on: SF-268 CNS
MCF7 breast = tested on: MCF7 breast
OVCAR-3 ovarian = tested on: OVCAR-3 ovarian
U251 CNS = tested on: U251 CNS
SK-MEL-2 melanoma = tested on: SK-MEL-2 melanoma
HS 578T breast = tested on: HS 578T breast
MDA-MB-231 breast = tested on: MDA-MB-231 breast
SF-539 CNS = tested on: SF-539 CNS
A549 NSCLC = tested on: A549 NSCLC
786-0 renal = tested on: 786-0 renal
OVCAR-4 ovarian = tested on: OVCAR-4 ovarian
BT-549 breast = tested on: BT-549 breast
RXF 393 renal = tested on: RXF 393 renal
A498 renal = tested on: A498 renal
T-47D breast = tested on: T-47D breast
PC-3 prostate = tested on: PC-3 prostate
SNB-19 CNS = tested on: SNB-19 CNS
MOLT-4 leukemia = tested on: MOLT-4 leukemia
NCI-H460 lung = tested on: NCI-H460 lung
SK-MEL-5 melanoma = tested on: SK-MEL-5 melanoma
MALME-3M melanoma = tested on: MALME-3M melanoma
ACHN renal = tested on: ACHN renal
SW-620 colon = tested on: SW-620 colon
LOX IMVI melanoma = tested on: LOX IMVI melanoma
HT29 colon = tested on: HT29 colon
HOP-92 NSCLC = tested on: HOP-92 NSCLC
HCC-2998 colon = tested on: HCC-2998 colon
NCI-H522 lung = tested on: NCI-H522 lung
K-562 leukemia = tested on: K-562 leukemia

`COc1ccc2ccc3oc([N+](=O)[O-])cc3c2c1` showed a GI50 (SN12C renal) of 0.311 µM, a TGI (SN12C renal) of 5.32 µM and a GI50 (M14 melanoma) of 0.115 µM. It also gave a TGI (M14 melanoma) of 0.307 µM, a GI50 (NCI/ADR-RES ovarian) of 0.251 µM and a TGI (NCI/ADR-RES ovarian) of 2.22 µM. For the same molecule, the GI50 (CCRF-CEM leukemia) was 0.193 µM, the TGI (CCRF-CEM leukemia) was 10.6 µM and the GI50 (SK-OV-3 ovarian) was 0.206 µM. The TGI (SK-OV-3 ovarian) was 0.894 µM, the GI50 (IGROV1 ovarian) was 0.246 µM and the TGI (IGROV1 ovarian) was 0.877 µM. It also gave a GI50 (NCI-H23 lung) of 0.198 µM, a TGI (NCI-H23 lung) of 0.572 µM and a GI50 (UACC-62 melanoma) of 0.157 µM. The TGI (UACC-62 melanoma) was 0.355 µM, the GI50 (OVCAR-5 ovarian) was 0.386 µM and the TGI (OVCAR-5 ovarian) was 7.68 µM. The GI50 (KM12 colon) was 0.417 µM, the TGI (KM12 colon) was 2.09 µM and the GI50 (NCI-H226 lung) was 0.296 µM. It also gave a TGI (NCI-H226 lung) of 3.22 µM, a GI50 (HCT-15 colon) of 0.218 µM and a TGI (HCT-15 colon) of 1.27 µM. For the same molecule, the GI50 (MDA-MB-435) was 0.116 µM, the TGI (MDA-MB-435) was 0.247 µM and the GI50 (TK-10 renal) was 0.56 µM. It also gave a TGI (TK-10 renal) of 6.52 µM, a GI50 (SK-MEL-28 melanoma) of 0.202 µM and a TGI (SK-MEL-28 melanoma) of 0.54 µM. It also gave a GI50 (DU-145 prostate) of 0.123 µM, a TGI (DU-145 prostate) of 2.14 µM and a GI50 (RPMI-8226 leukemia) of 0.333 µM. It also gave a TGI (RPMI-8226 leukemia) of 5.92 µM, a GI50 (CAKI-1 renal) of 0.186 µM and a TGI (CAKI-1 renal) of 0.514 µM. The GI50 (OVCAR-8 ovarian) was 0.216 µM, the TGI (OVCAR-8 ovarian) was 3.27 µM and the GI50 (HOP-62 NSCLC) was 1.03 µM. The TGI (HOP-62 NSCLC) was 6.34 µM, the GI50 (COLO 205 colon) was 0.157 µM and the TGI (COLO 205 colon) was 0.432 µM. For the same molecule, the GI50 (SF-295 CNS) was 0.251 µM, the TGI (SF-295 CNS) was 3.22 µM and the GI50 (SNB-75 CNS) was 0.166 µM. It also gave a TGI (SNB-75 CNS) of 0.527 µM, a GI50 (SR leukemia) of 0.0827 µM and a TGI (SR leukemia) of 11.7 µM. The GI50 (HCT-116 colon) was 0.189 µM, the TGI (HCT-116 colon) was 1.21 µM and the GI50 (SF-268 CNS) was 0.201 µM. It also gave a TGI (SF-268 CNS) of 1.69 µM, a GI50 (MCF7 breast) of 0.226 µM and a TGI (MCF7 breast) of 2.34 µM. The GI50 (OVCAR-3 ovarian) was 0.255 µM, the TGI (OVCAR-3 ovarian) was 0.754 µM and the GI50 (U251 CNS) was 0.277 µM. For the same molecule, the TGI (U251 CNS) was 5.37 µM, the GI50 (SK-MEL-2 melanoma) was 0.242 µM and the TGI (SK-MEL-2 melanoma) was 0.509 µM. It also gave a GI50 (HS 578T breast) of 0.297 µM, a TGI (HS 578T breast) of 1.44 µM and a GI50 (MDA-MB-231 breast) of 0.208 µM. For the same molecule, the TGI (MDA-MB-231 breast) was 0.723 µM, the GI50 (SF-539 CNS) was 0.275 µM and the TGI (SF-539 CNS) was 1.07 µM. For the same molecule, the GI50 (A549 NSCLC) was 0.197 µM, the TGI (A549 NSCLC) was 0.543 µM and the GI50 (786-0 renal) was 0.316 µM. For the same molecule, the TGI (786-0 renal) was 1.1 µM, the GI50 (OVCAR-4 ovarian) was 0.828 µM and the TGI (OVCAR-4 ovarian) was 5.41 µM. It also gave a GI50 (BT-549 breast) of 0.194 µM, a TGI (BT-549 breast) of 0.606 µM and a GI50 (RXF 393 renal) of 0.141 µM. It also gave a TGI (RXF 393 renal) of 0.316 µM, a GI50 (A498 renal) of 0.126 µM and a TGI (A498 renal) of 0.301 µM. The GI50 (T-47D breast) was 1.83 µM, the TGI (T-47D breast) was greater than 100 µM and the GI50 (PC-3 prostate) was 1.08 µM. For the same molecule, the TGI (PC-3 prostate) was 7.9 µM, the GI50 (SNB-19 CNS) was 0.281 µM and the TGI (SNB-19 CNS) was greater than 100 µM. For the same molecule, the GI50 (MOLT-4 leukemia) was 0.0745 µM, the TGI (MOLT-4 leukemia) was greater than 100 µM and the GI50 (NCI-H460 lung) was 0.114 µM. The TGI (NCI-H460 lung) was 0.405 µM, the GI50 (SK-MEL-5 melanoma) was 0.104 µM and the TGI (SK-MEL-5 melanoma) was 0.228 µM. For the same molecule, the GI50 (MALME-3M melanoma) was 0.187 µM, the TGI (MALME-3M melanoma) was 0.393 µM and the GI50 (ACHN renal) was 0.0402 µM. It also gave a TGI (ACHN renal) of 1.44 µM, a GI50 (SW-620 colon) of 0.236 µM and a TGI (SW-620 colon) of 2.14 µM. The GI50 (LOX IMVI melanoma) was 0.0557 µM, the TGI (LOX IMVI melanoma) was 0.355 µM and the GI50 (HT29 colon) was 0.202 µM. It also gave a TGI (HT29 colon) of 1.89 µM, a GI50 (HOP-92 NSCLC) of 0.155 µM and a TGI (HOP-92 NSCLC) of 0.506 µM. For the same molecule, the GI50 (HCC-2998 colon) was 0.171 µM, the TGI (HCC-2998 colon) was 0.416 µM and the GI50 (NCI-H522 lung) was 0.169 µM. It also gave a TGI (NCI-H522 lung) of 0.563 µM, a GI50 (K-562 leukemia) of 0.259 µM and a TGI (K-562 leukemia) greater than 100 µM.
